The source of these data is patent publication US10106529B2, “Compounds that modulate intracellular calcium” (CalciMedica, Inc., priority 2011, dated 2018).

Some results are limits rather than exact numbers.

One assay addresses T1, Orai1/STIM1 (Homo sapiens, UniProt Q96D31).
T1 construct: c-myc (C); expressed in transfected cells; host or cells: HEK-293 cells stably expressing recombinant human STIM1 and Orai1
As to the kind of experiment: Fluorescence-based assay of store-operated calcium entry in Orai1/STIM1 stable cells. The format is cell-based. Also on record: key to Orai1/STIM1 (IC50, μmol): A, IC50 < 0.6 μM; B, IC50 = 0.6-1.2 μM; C, IC50 > 1.2 μM; — no fit. To be noted: HEK-293 cells stably expressing human STIM1 and Orai1, inhibition of Peak-Basal fluorescence signal after calcium addition; for IC50: read-out: Orai1/STIM1 (IC50, μmol). The text has this: (§1) Fluorescence-based assays are used for screening the compounds described herein, such as compounds of Formulas (I), (IA), (II), (IIA), (III), (IIIA), (IV), (IVA), (V), (VA), (VI), (VIA), (VII), (VIIA), (VIII), (VIIIA), (IX), (IXA), (X), (XI), (XIA), (XII), or (XIIA) which modulate intracellular calcium.
A. Fluorescence-Based Assay of Store-Operated Calcium Entry in Orai1/STIM1 Stable Cells.
Cells stably expressing recombinant human STIM1 and Orai1 are generated by transfecting a human Orai1 expression plasmid (pcDNA3.1-Orai1-cmyc) into HEK-293 cells stably overexpressing human STIM1 (Roos et al. 2005 JCB 169(3): 435-445). Colonies of cells stably expressing both STIM1 and Orai1 proteins are selected and then subcloned by limiting dilution. Cells were cultured at 37° C./6% CO2 in complete medium with 10% FBS and appropriate selection markers.
The day prior to performing the assay Orai1/STIM1 stable cells are plated in 50 μL of complete medium at 90-95% confluence in a 384 well plate. Cells are grown at 37° C./6% CO2 overnight. On the day of the assay, 1.5 μM fluo-4-AM (Invitrogen) in complete medium is added to the cells, which are then incubated for 1 hour at RT. Cells are washed once in Ca^2+-free HBSS (Hank's buffered saline solution) and 35 μl of Ca^2+-free HBSS is added to each well. Test compounds are added to wells in a 10 μL Ca^2+-free HBSS solution, prepared at 4.5× the desired final concentration, and incubated for 30 minutes at RT. The initial baseline fluorescence signal is then measured with a FLIPR^384 (Molecular Devices) plate reader. Calcium entry is initiated by adding 5 μl of 10×CaCl2 (10 mM) in HBSS, and changes in cellular fluorescence are measured with the FLIPR^384 plate reader. In each well, the magnitude of the fluorescence signal as a result of calcium entry into the cell is determined by calculating the difference between the peak fluorescence signal measured after calcium addition and the initial baseline fluorescence signal (designated Peak-Basal). IC50 values are typically calculated as the concentration that inhibited 50% of the Peak-Basal signal.

The next assay deals with RBL-2H3 cells. The experiment in a line: Fluorescence-based assay of store-operated calcium entry in RBL-2H3 cells. In kind it is cell-based, rat. More on the design: key to RBL-2H3 (IC50, μmol): A, IC50 < 0.6 μM; B, IC50 = 0.6-1.2 μM; C, IC50 > 1.2 μM; — no fit. The following applies: thapsigargin, inhibition of Upslope of fluorescence after calcium addition; for IC50: Rattus norvegicus, read-out: RBL-2H3 (IC50, μmol). The protocol: as §1
B. Fluorescence-Based Assay of Store-Operated Calcium Entry in RBL-2H3 Cells.
RBL-2H3 cells are obtained from ATCC and maintained in complete medium with 10% FBS at 37° C./6% CO2.
The day prior to performing the assay, RBL-2H3 cells are plated in 50 μL of complete medium in a 384 well plate. Cells are grown at 37° C./6% CO2 overnight and grow to 50-60% confluence by the next day. On the assay day, 1.5 µM Fluo-4-AM dye (Invitrogen) in complete medium is added and incubated for 1 hour at RT. Cells are washed twice in Ca^2+-free HBSS buffer and 35 μL Ca^2+-free HBSS buffer is added to each well. 10 μL of a test compound prepared in a Ca^2+-free HBSS solution at 4.5× of the desired concentration is added to a well and incubated for 5 minutes at RT. 10 μL of thapsigargin prepared in a Ca^2+-free HBSS solution at 5.5× of the desired concentration (5.5 uM) is added to each well and incubated for an additional 25 minutes. The initial baseline fluorescence signal is measured with a FLIPR^384 (Molecular Devices) plate reader. 5 μL of 12× calcium in HBSS (12 mM) is added and changes in cellular fluorescence are measured with the FLIPR^384 plate reader. In each well, the change in the fluorescent signal as a function of time due to calcium entry into the cell is determined by calculating the difference between the fluorescent signal measured 7 seconds after calcium addition and the initial baseline fluorescence signal at time zero (t=0). This parameter is designated Upslope. The IC50 value is calculated as the concentration at which 50% of the Upslope is inhibited.

T1 sequence (Q96D31 whole entry): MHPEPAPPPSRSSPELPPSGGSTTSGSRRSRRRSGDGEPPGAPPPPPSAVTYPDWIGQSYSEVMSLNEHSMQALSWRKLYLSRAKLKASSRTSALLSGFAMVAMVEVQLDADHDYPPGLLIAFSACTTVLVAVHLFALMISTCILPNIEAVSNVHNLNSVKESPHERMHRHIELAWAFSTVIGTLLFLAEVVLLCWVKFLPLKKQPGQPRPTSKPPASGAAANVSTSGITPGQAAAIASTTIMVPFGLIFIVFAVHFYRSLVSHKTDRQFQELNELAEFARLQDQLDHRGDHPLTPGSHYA

For `Cc1cc2c(cc1-c1cnc(NCc3c(F)cc(F)cc3F)cn1)OC(F)(F)O2` [Compound 23], the IC50 is 600 to 1200 nM on Orai1/STIM1 and below 600 nM with RBL-2H3 cells.

As to `Cc1cc2c(cc1-c1ccc(NCc3c(F)cccc3F)nc1)OCCO2` [Compound 37, N-(2,6-difluorobenzyl)-5-(7-methyl-2,3-dihydrobenzo[b][1,4]dioxin-6-yl)pyridin-2-amine], the IC50 is 600 to 1200 nM on Orai1/STIM1 and below 600 nM in the assay with RBL-2H3 cells.

Turning to `Fc1cccc(F)c1CNc1ccc(-c2cc3c(cc2Cl)OCCO3)cn1` [Compound 42, 5-(7-chloro-2,3-dihydrobenzo[b][1,4]dioxin-6-yl)-N-(2,6-difluorobenzyl)pyridin-2-amine], the IC50 is above 1200 nM on Orai1/STIM1 and below 600 nM in the assay with RBL-2H3 cells.

For `Cc1cc(F)ccc1CNc1ccc(-c2nc3c(cc2Cl)OCCO3)cn1` [Compound 46], the results for the IC50 at Orai1/STIM1 and in the assay with RBL-2H3 cells were 600 to 1200 nM and below 600 nM, respectively.

Take `Cn1nc(C(F)(F)F)cc1-c1cnc(OCc2c(F)cccc2Cl)nc1` [Compound 69]: at Orai1/STIM1, the “Orai1/STIM1 (IC50, μmol)” value was “—”. Also, in the assay on RBL-2H3 cells, the “RBL-2H3 (IC50, μmol)” value is recorded as “—”.

Consider `Cc1cc2c(cc1-c1cnc(OCc3c(F)cccc3Cl)nc1)OC(F)(F)O2` [Compound 70], for which the figures for the IC50 on Orai1/STIM1 and with RBL-2H3 cells were above 1200 nM and below 600 nM, respectively.

Turning to `Cn1nc(C(F)(F)F)cc1-c1ccc(NC(=O)c2ccccc2F)nc1` [Compound 72, (2-fluorophenyl)-N-{5-[1-methyl-3-(trifluoromethyl)pyrazol-5-yl](2-pyridyl)}carboxamide], the IC50 on Orai1/STIM1 and in the assay with RBL-2H3 cells was below 600 nM in each case.

As for `Cn1nc(C(F)(F)F)cc1-c1ccc(NC(=O)c2c(F)cccc2F)nc1` [Compound 74, (2,6-difluorophenyl)-N-{5-[1-methyl-3-(trifluoromethyl)pyrazol-5-yl](2-pyridyl)}carboxamide], the IC50 is 600 to 1200 nM on Orai1/STIM1 and below 600 nM with RBL-2H3 cells.

As for `Cn1nc(C(F)(F)F)cc1-c1cnc(NCc2c(F)cccc2F)cc1F` [Compound 76, N-(2,6-difluorobenzyl)-4-fluoro-5-(1-methyl-3-(trifluoromethyl)-1H-pyrazol-5-yl)pyridin-2-amine], the IC50 at Orai1/STIM1 is above 1200 nM; in the assay on RBL-2H3 cells it was 600 to 1200 nM.

As for `Cn1nc(C(F)(F)F)cc1-c1ccc(NCc2c(F)ccc(F)c2F)nc1` [Compound 78, 5-(1-methyl-3-(trifluoromethyl)-1H-pyrazol-5-yl)-N-(2,3,6-trifluorobenzyl)pyridin-2-amine], the IC50 at Orai1/STIM1 and with RBL-2H3 cells was below 600 nM throughout.

Take `Cn1nc(C(F)(F)F)cc1-c1ccc(NCc2ccc(F)cc2F)nc1` [Compound 80, 5-(1-methyl-3-(trifluoromethyl)-1H-pyrazol-5-yl)-N-(2,4-difluorobenzyl)pyridin-2-amine]: the IC50 at Orai1/STIM1 and in the assay on RBL-2H3 cells was below 600 nM in each case.

`Cn1nc(C(F)(F)F)cc1-c1ccc(NCc2c(F)cc(F)cc2F)nc1` [Compound 82, 5-(1-methyl-3-(trifluoromethyl)-1H-pyrazol-5-yl)-N-(2,4,6-trifluorobenzyl)pyridin-2-amine]: the IC50 at Orai1/STIM1 and with RBL-2H3 cells was below 600 nM in each case.

For the molecule `Cn1nc(C(F)(F)F)cc1-c1ccc(NCc2c(F)cncc2F)nc1` [Compound 84, N-((3,5-difluoropyridin-4-yl)methyl)-5-(1-methyl-3-(trifluoromethyl)-1H-pyrazol-5-yl)pyridin-2-amine], the IC50 at Orai1/STIM1 and with RBL-2H3 cells was below 600 nM throughout.

As to `Cc1cccc(F)c1CNc1ccc(-c2cc(C(F)(F)F)nn2C)cn1` [Compound 86, N-(2-fluoro-6-methylbenzyl)-5-(1-methyl-3-(trifluoromethyl)-1H-pyrazol-5-yl)pyridin-2-amine], the IC50 at Orai1/STIM1 and in the assay on RBL-2H3 cells was below 600 nM each time.

With `Cn1nc(C(F)(F)F)cc1-c1cnc(NCc2ccccc2F)nc1` [Compound 96, N-(2-fluorobenzyl)-5-(1-methyl-3-(trifluoromethyl)-1H-pyrazol-5-yl)pyrimidin-2-amine], the IC50 on Orai1/STIM1 and with RBL-2H3 cells was below 600 nM in each case.

For the molecule `Fc1cccc(F)c1CNc1ccc(-n2nc(C(F)(F)F)cc2C(F)(F)F)cn1` [Compound 100, 5-(3,5-bis(trifluoromethyl)-1H-pyrazol-1-yl)-N-(2,6-difluorobenzyl)pyridin-2-amine], the IC50 at Orai1/STIM1 and with RBL-2H3 cells was below 600 nM in each case.

In the case of `Fc1cc(F)c(CNc2ccc(-n3nc(C(F)(F)F)cc3C(F)(F)F)cn2)c(F)c1` [Compound 102, 5-(3,5-bis(trifluoromethyl)-1H-pyrazol-1-yl)-N-(2,4,6-trifluorobenzyl)pyridin-2-amine], the IC50 on Orai1/STIM1 and in the assay with RBL-2H3 cells was below 600 nM in each case.

`Cc1nc(C(F)(F)F)cn1-c1ccc(NCc2c(F)cccc2F)nc1` [Compound 106, N-(2,6-difluorobenzyl)-5-(2-methyl-4-(trifluoromethyl)-1H-imidazol-1-yl)pyridin-2-amine]: the IC50 at Orai1/STIM1 and in the assay with RBL-2H3 cells was below 600 nM in each case.

As to `Cc1nc(C(F)(F)F)cn1-c1ccc(NCc2c(F)cc(F)cc2F)nc1` [Compound 108, 5-(2-methyl-4-(trifluoromethyl)-1H-imidazol-1-yl)-N-(2,4,6-trifluorobenzyl)pyridin-2-amine], the values for the IC50 at Orai1/STIM1 and in the assay on RBL-2H3 cells were 600 to 1200 nM and below 600 nM, respectively.

Take `Cc1nc(C(F)(F)F)cn1-c1ccc(NCc2c(F)cncc2F)nc1` [Compound 110, N-((3,5-difluoropyridin-4-yl)methyl)-5-(2-methyl-4-(trifluoromethyl)-1H-imidazol-1-yl)pyridin-2-amine]: the “Orai1/STIM1 (IC50, μmol)” value on Orai1/STIM1 is listed as “—”. The IC50 in the assay with RBL-2H3 cells was above 1200 nM.

`Cc1c(F)cccc1CNc1ccc(-n2cc(C(F)(F)F)nc2C)cn1` [Compound 112, N-(3-fluoro-2-methylbenzyl)-5-(2-methyl-4-(trifluoromethyl)-1H-imidazol-1-yl)pyridin-2-amine]: the “Orai1/STIM1 (IC50, μmol)” value on Orai1/STIM1 is listed as “—”. Besides, in the assay on RBL-2H3 cells, the IC50 was in the range of 600 to 1200 nM.

As to `Cc1cc(C(F)(F)F)nn1-c1ccc(NCc2c(F)cccc2F)nc1` [Compound 116, N-(2,6-difluorobenzyl)-5-(5-methyl-3-(trifluoromethyl)-1H-pyrazol-1-yl)pyridin-2-amine], the IC50 on Orai1/STIM1 and with RBL-2H3 cells was below 600 nM throughout.

Take `Cc1cc(C(F)(F)F)nn1-c1ccc(NCc2c(F)cc(F)cc2F)nc1` [Compound 118, 5-(5-methyl-3-(trifluoromethyl)-1H-pyrazol-1-yl)-N-(2,4,6-trifluorobenzyl)pyridin-2-amine]: the IC50 on Orai1/STIM1 and in the assay with RBL-2H3 cells was below 600 nM each time.

`COc1cc(F)c(CNc2ccc(-n3nc(C(F)(F)F)cc3C)cn2)c(F)c1` [Compound 120, N-(2,6-difluoro-4-methoxybenzyl)-5-(5-methyl-3-(trifluoromethyl)-1H-pyrazol-1-yl)pyridin-2-amine]: the IC50 at Orai1/STIM1 was 600 to 1200 nM; in the assay on RBL-2H3 cells it was below 600 nM.
